In ChEMBL document CHEMBL5120971, “Network Pharmacology Research and Dual-omic Analyses Reveal the Molecular Mechanism of Natural Product Nodosin Inhibiting Muscle-Invasive Bladder Cancer in Vitro and in Vivo” (J Nat Prod, 2022):
Activity calls are given as the source filed them. No cut-off for these calls is given here.

Key:
[1] = system: T-24; test: Induction of apoptosis in human T24 cells assessed as up regulation of HMOX1 expression at 6 to 12 uM measured after 24 to 30 hrs by Western blot analysis; type: functional, cell-based; settings: dose 6-12 µM, time 24-30 hrs
[2] = system: T-24; test: Induction of autophagy in human T24 cells assessed as effect on WDR41 gene expression at 6 uM measured after 12 to 18 hrs by transcriptome analysis; type: functional, cell-based; settings: time 12-18 hrs
[3] = system: T-24; test: Induction of autophagy in human T24 cells assessed as effect on CISD2 gene expression at 6 uM measured after 12 to 18 hrs by transcriptome analysis; type: functional, cell-based; settings: time 12-18 hrs
[4] = system: T-24; test: Induction of mitochondrial membrane potential loss in human T24 cells at 8 to 16 uM measured after 24 hrs by JC1 dye based fluorescence assay; type: functional, cell-based; settings: dose 8-16 µM
[5] = system: T-24; test: Induction of autophagy in human T24 cells assessed as up regulation of SQSTM1 expression at 6 uM measured after 24 to 30 hrs by proteomic analysis; type: functional, cell-based; settings: time 24-30 hrs
[6] = system: T-24; test: Induction of morphological changes in human T24 cells assessed as reduction in cell extension at 4 to 12 uM measured after 48 hrs by microscopy; type: functional, cell-based; settings: dose 4-12 µM
[7] = system: T-24; test: Induction of autophagy in human T24 cells assessed as effect on LGALS8 gene expression at 6 uM measured after 12 to 18 hrs by transcriptome analysis; type: functional, cell-based; settings: time 12-18 hrs
[8] = system: T-24; test: Antitumor activity against human T24 cells xenografted in BALB/c mouse assessed as reduction in Ki67 expression at 2 mg/kg, ip administered at 2 days interval by immunohistochemical analysis; type: functional, organism-based
[9] = system: T-24; test: Inhibition of colony formation in human T24 cells at 1 to 12 uM measured after 12 days by crystal violet staining based microscopy; type: functional, cell-based; settings: dose 1-12 µM, time 12.0 day
[10] = system: T-24; test: Induction of cell membrane disruption in human T24 cells at 4 to 20 uM measured after 24 hrs by Dio/Hoechst 33342 staining based fluorescence assay; settings: dose 4-20 µM
[11] = system: T-24; test: Up regulation of SLC7A11 gene expression in human T24 cells at 6 uM measured after 12 to 18 hrs by transcriptome analysis; type: functional, cell-based; settings: time 12-18 hrs
[12] = system: T-24; test: Inhibition of DNA replication in human T24 cells at 4 to 10 uM measured after 24 hrs by EdU staining based fluorescence assay; type: functional, cell-based; settings: dose 4-10 µM
[13] = system: T-24; test: Cytotoxicity against human T24 cells assessed as reduction in cell growth at 4 uM by CCK8 assay; type: functional, cell-based; settings: time 24-72 hrs, TDE = time-dependent effect
[14] = system: T-24; test: Induction of morphological changes in human T24 cells assessed as cell shrinkage at 4 to 12 uM measured after 48 hrs by microscopy; type: functional, cell-based; settings: dose 4-12 µM
[15] = system: T-24; test: Induction of morphological changes in human T24 cells assessed as cytoplasmic condensation at 4 to 12 uM measured after 48 hrs by microscopy; type: functional, cell-based; settings: dose 4-12 µM
[16] = system: T-24; test: Induction of apoptosis in human T24 cells assessed as necrotic cells at 6 uM measured after 48 hrs by Annexin V-FITC/propidium iodide staining based flow cytometry (reference value: 0.57%); type: functional
[17] = system: T-24; test: Up regulation of AIFM2 expression in human T24 cells at 6 uM measured after 24 to 30 hrs by proteomic analysis; type: functional, cell-based; settings: time 24-30 hrs
[18] = system: T-24; test: Effect on NBN expression in human T24 cells at 6 uM measured after 24 to 30 hrs by proteomic analysis; type: functional, cell-based; settings: time 24-30 hrs
[19] = system: T-24; test: Effect on RPA2 expression in human T24 cells at 6 uM measured after 24 to 30 hrs by proteomic analysis; type: functional, cell-based; settings: time 24-30 hrs
[20] = system: T-24; test: Induction of apoptosis in human T24 cells assessed as effect on G0S2 expression at 6 uM measured after 24 to 30 hrs by proteomic analysis; type: functional, cell-based; settings: time 24-30 hrs
[21] = system: T-24; test: Induction of apoptosis in human T24 cells assessed as viable cells at 6 uM measured after 48 hrs by Annexin V-FITC/propidium iodide staining based flow cytometry (reference value: 97.49%); type: functional; settings: read-out: Activity
[22] = system: T-24; test: Induction of apoptosis in human T24 cells assessed as up regulation of SQSTM1 gene expression at 6 uM measured after 12 to 18 hrs by transcriptome analysis; type: functional, cell-based; settings: time 12-18 hrs
[23] = system: T-24; test: Induction of morphological changes in human T24 cells assessed as appearance of apoptotic bodies at 4 to 8 uM measured after 48 hrs by transmission electron microscopy; type: functional, cell-based; settings: dose 4-8 µM
[24] = system: T-24; test: Effect on HLTF expression in human T24 cells at 6 uM measured after 24 to 30 hrs by proteomic analysis; type: functional, cell-based; settings: time 24-30 hrs
[25] = system: T-24; test: Induction of autophagy in human T24 cells assessed as effect on SQSTM1 gene expression at 6 uM measured after 12 to 18 hrs by transcriptome analysis; type: functional, cell-based; settings: time 12-18 hrs
[26] = system: T-24; test: Antimigratory activity against human T24 cells assessed as down regulation of CFL2 expression at 6 uM measured after 24 to 30 hrs by proteomic analysis; type: functional, cell-based; settings: time 24-30 hrs
[27] = system: T-24; test: Induction of apoptosis in human T24 cells assessed as early apoptotic cells at 4 uM measured after 48 hrs by Annexin V-FITC/propidium iodide staining based flow cytometry (reference value: 1.2%); type: functional
[28] = system: T-24; test: Antimigratory activity against human T24 cells assessed as down regulation of LIMA1 expression at 6 uM measured after 24 to 30 hrs by proteomic analysis; type: functional, cell-based; settings: time 24-30 hrs
[29] = system: T-24; test: Up regulation of HMOX1 expression in human T24 cells at 6 uM measured after 24 to 30 hrs by proteomic analysis; type: functional, cell-based; settings: time 24-30 hrs
[30] = system: T-24; test: Induction of apoptosis in human T24 cells assessed as early apoptotic cells at 6 uM measured after 48 hrs by Annexin V-FITC/propidium iodide staining based flow cytometry (reference value: 1.2%); type: functional
[31] = system: T-24; test: Induction of morphological changes in human T24 cells assessed as reduction in cell adherence at 4 to 12 uM measured after 48 hrs by microscopy; type: functional, cell-based; settings: dose 4-12 µM
[32] = system: T-24; test: Antimigratory activity against human T24 cells assessed as down regulation of ITGA3 expression at 6 uM measured after 24 to 30 hrs by proteomic analysis; type: functional, cell-based; settings: time 24-30 hrs
[33] = system: T-24; test: Induction of apoptosis in human T24 cells assessed as up regulation of HMOX1 gene expression at 6 uM measured after 12 to 18 hrs by transcriptome analysis; type: functional, cell-based; settings: time 12-18 hrs
[34] = system: T-24; test: Up regulation of FTL gene expression in human T24 cells at 6 uM measured after 12 to 18 hrs by transcriptome analysis; type: functional, cell-based; settings: time 12-18 hrs
[35] = Toxicity in human T24 cells xenografted BALB/c mouse assessed as effect on body weight at 2 mg/kg, ip administered at 2 days interval; type: organism-based, T-24; settings: in vivo, 48 h
[36] = system: T-24; test: Induction of apoptosis in human T24 cells assessed as viable cells at 8 uM measured after 48 hrs by Annexin V-FITC/propidium iodide staining based flow cytometry (reference value: 97.49%); type: functional; settings: read-out: Activity
[37] = system: T-24; test: Induction of autophagy in human T24 cells assessed as effect on FLCN gene expression at 6 uM measured after 12 to 18 hrs by transcriptome analysis; type: functional, cell-based; settings: time 12-18 hrs
[38] = system: T-24; test: Effect on PDCD2L expression in human T24 cells at 6 uM measured after 24 to 30 hrs by proteomic analysis; type: functional, cell-based; settings: time 24-30 hrs
[39] = system: T-24; test: Effect on CDKN3 expression in human T24 cells at 6 uM measured after 24 to 30 hrs by proteomic analysis; type: functional, cell-based; settings: time 24-30 hrs

## C=C1C(=O)[C@]23C[C@H]1C[C@@H](O)[C@H]2[C@@]12CO[C@@H](O)[C@@H]1C(C)(C)CC[C@@H]2OC3=O [NODOSIN]
[1]
  Activity: Active
[2]
  Activity: Active
[3]
  Activity: Active
[4]
  Activity: Active
[5]
  Activity: Active
[6]
  Activity: Active
[7]
  Activity: Active
[8]
  Activity: Active
[9]
  inhibition: Active
[10]
  Activity: Active
[11]
  Activity: Active
[12]
  inhibition: Active
[13]
  Activity: Tde
[14]
  Activity: Active
[15]
  Activity: Active
[16]
  Activity: 0.4%
[17]
  Activity: Active
[18]
  Activity: Active
[19]
  Activity: Active
[20]
  Activity: Active
[21]
  viability at 6 µM: 78.8%
[22]
  Activity: Active
[23]
  Activity: Active
[24]
  Activity: Active
[25]
  Activity: Active
[26]
  Activity: Active
[27]
  Activity: 2.38%
[28]
  Activity: Active
[29]
  Activity: Active
[30]
  Activity: 10.74%
[31]
  Activity: Active
[32]
  Activity: Active
[33]
  Activity: Active
[34]
  Activity: Active
[35]
  Activity: Non-Toxic
[36]
  viability at 8 µM: 75.9%
[37]
  Activity: Active
[38]
  Activity: Active
[39]
  Activity: Active
